Consider eight molecules from paper PMC2014795 (PLoS Pathogens, 2007).

For the assay, the target named is T1, HLA-DR1 (DRB1*0101) (Homo sapiens, UniProt P01903+P01911, A100R/D57E/F55L/F60I/F76Y/I96L/L162R/M171V/P40L/Q125E/R42F/V115G/Y59C).
T1 construct: the extracellular portion of HLA-DR1 was produced by expression of isolated subunits in Escherichia coli inclusion bodies; made in house
The experiment in a line: biochemical. The class given is binding.
For `CC[C@H](C)[C@H](NC(=O)[C@H](Cc1ccccc1)NC(=O)[C@H](CC(C)C)NC(=O)[C@H](CC(C)C)NC(=O)[C@H](CS)NC(=O)[C@@H](NC(=O)[C@H](C)NC(=O)[C@H](C)NC(=O)[C@@H](NC(=O)[C@H](C)N)[C@@H](C)O)C(C)C)C(=O)N[C@@H](CCC(N)=O)C(=O)NCC(=O)N[C@@H](Cc1ccc(O)cc1)C(=O)N[C@@H](CO)C(=O)N[C@H](C(=O)N[C@@H](Cc1ccc(O)cc1)C(=O)N[C@@H](CCC(=O)O)C(=O)N[C@@H](CC(N)=O)C(=O)N[C@@H](Cc1ccc(O)cc1)C(=O)NCC(=O)N[C@@H](CC(N)=O)C(=O)O)[C@@H](C)CC` [Peptide 336], half-maximal inhibition (IC50) required 280 ± 40 nM.

`CC[C@H](C)[C@H](N)C(=O)N[C@@H](CO)C(=O)N[C@@H](CCC(=O)O)C(=O)N1CCC[C@H]1C(=O)N[C@H](C(=O)N[C@@H](CC(N)=O)C(=O)N[C@H](C(=O)N[C@@H](Cc1ccc(O)cc1)C(=O)N[C@@H](CC(C)C)C(=O)N[C@@H](CC(C)C)C(=O)N[C@@H](C)C(=O)N[C@@H](C)C(=O)N[C@H](C(=O)N[C@@H](Cc1ccc(O)cc1)C(=O)N[C@@H](CO)C(=O)N[C@@H](CC(=O)O)C(=O)N[C@@H](Cc1ccccc1)C(=O)N[C@@H](CC(N)=O)C(=O)N[C@@H](CC(=O)O)C(=O)N[C@@H](CCC(=O)O)C(=O)N[C@H](C(=O)O)C(C)C)C(C)C)C(C)C)C(C)C` [Peptide 341]: the IC50 (commonly the concentration needed to halve the response being measured) was determined as 32 ± 2 nM. This IC50 is about 8.8-fold lower than that of the molecule before.

Take `CC[C@H](C)[C@H](NC(=O)CNC(=O)[C@@H](NC(=O)[C@H](CC(C)C)NC(=O)[C@H](CCCCN)NC(=O)[C@H](CC(C)C)NC(=O)[C@H](Cc1ccc(O)cc1)NC(=O)[C@H](CCC(=O)O)NC(=O)[C@H](CCCNC(=N)N)NC(=O)[C@@H](NC(=O)[C@H](CO)NC(=O)[C@@H](NC(=O)[C@@H](N)CC(N)=O)[C@@H](C)O)[C@@H](C)O)[C@@H](C)CC)C(=O)N[C@H](C(=O)N[C@@H](C)C(=O)N[C@H](C(=O)N[C@@H](CCSC)C(=O)N[C@@H](Cc1ccccc1)C(=O)N[C@@H](C)C(=O)N[C@H](C(=O)N[C@@H](Cc1ccc(O)cc1)C(=O)O)[C@@H](C)O)[C@@H](C)CC)[C@@H](C)O` [Peptide 308]: the midpoint of inhibition, the IC50, lay at 23 ± 5 nM.

`CC[C@H](C)[C@H](NC(=O)CNC(=O)[C@H](CCCCN)NC(=O)[C@@H](N)Cc1c[nH]c2ccccc12)C(=O)N[C@@H](Cc1ccc(O)cc1)C(=O)N[C@H](C(=O)N[C@@H](Cc1ccc(O)cc1)C(=O)N[C@@H](CCCNC(=N)N)C(=O)N[C@H](C(=O)N[C@H](C(=O)N[C@@H](CCCCN)C(=O)N[C@@H](CO)C(=O)N[C@@H](CO)C(=O)N[C@@H](Cc1ccccc1)C(=O)N1CCC[C@H]1C(=O)N[C@H](C(=O)N1CCC[C@H]1C(=O)N[C@H](C(=O)N[C@H](C(=O)N[C@@H](CCCCN)C(=O)N[C@@H](CO)C(=O)O)[C@@H](C)CC)[C@@H](C)O)C(C)C)[C@@H](C)CC)[C@@H](C)CC)[C@@H](C)O` [Peptide 335] displayed an IC50 of 38 ± 11 nM.

In turn, `CC[C@H](C)[C@H](N)C(=O)N[C@@H](CC(=O)O)C(=O)N[C@@H](CC(N)=O)C(=O)NCC(=O)N[C@@H](CO)C(=O)N[C@@H](CC(N)=O)C(=O)N[C@@H](CCSC)C(=O)N[C@@H](CC(C)C)C(=O)N[C@H](C(=O)N[C@@H](CC(C)C)C(=O)N[C@@H](CC(N)=O)C(=O)N1CCC[C@H]1C(=O)N[C@H](C(=O)N[C@@H](CCC(N)=O)C(=O)N[C@@H](CO)C(=O)N[C@@H](CC(=O)O)C(=O)N[C@@H](CO)C(=O)NCC(=O)N[C@H](C(=O)N[C@@H](Cc1ccc(O)cc1)C(=O)N[C@H](C(=O)O)[C@@H](C)CC)[C@@H](C)CC)[C@@H](C)O)[C@@H](C)CC` [Peptide 338] returned an IC50 of 980 ± 170 nM.

Molecule `CC[C@H](C)[C@H](NC(=O)[C@@H](NC(=O)[C@@H]1CCCN1C(=O)[C@H](CCC(=O)O)NC(=O)[C@H](CO)NC(=O)[C@H](CO)NC(=O)[C@H](CCSC)NC(=O)[C@H](Cc1ccc(O)cc1)NC(=O)[C@H](CCCNC(=N)N)NC(=O)[C@H](Cc1ccccc1)NC(=O)[C@@H](NC(=O)[C@@H](NC(=O)[C@H](CC(N)=O)NC(=O)[C@H](C)NC(=O)[C@@H](NC(=O)[C@@H](N)CCC(N)=O)[C@@H](C)O)C(C)C)C(C)C)[C@@H](C)CC)C(=O)N[C@@H](Cc1ccccc1)C(=O)NCC(=O)N[C@@H](CCC(=O)O)C(=O)N[C@@H](CO)C(=O)N[C@@H](CO)C(=O)O` [Peptide 302] yielded an IC50 of 37 ± 10 nM.

For the molecule `CC[C@H](C)[C@H](NC(=O)[C@H](CC(N)=O)NC(=O)[C@H](CCSC)NC(=O)[C@H](CS)NC(=O)[C@H](CCC(N)=O)NC(=O)[C@@H](NC(=O)[C@@H](NC(=O)[C@H](CCCCN)NC(=O)CN)[C@@H](C)O)[C@@H](C)O)C(=O)N[C@@H](CCSC)C(=O)N[C@@H](CCC(=O)O)C(=O)N[C@@H](CO)C(=O)N[C@H](C(=O)N1CCC[C@H]1C(=O)N[C@@H](C)C(=O)N[C@@H](CC(N)=O)C(=O)N[C@H](C(=O)N[C@H](C(=O)N[C@@H](CCCCN)C(=O)N[C@@H](Cc1ccc(O)cc1)C(=O)N[C@@H](CC(C)C)C(=O)O)[C@@H](C)CC)[C@@H](C)O)[C@@H](C)CC` [Peptide 327], inhibition was half-maximal at 11 ± 3 nM (IC50).

`CC[C@H](C)[C@H](NC(=O)[C@H](CC(N)=O)NC(=O)[C@H](Cc1ccccc1)NC(=O)[C@H](CC(C)C)NC(=O)[C@H](CCCCN)NC(=O)[C@H](CC(N)=O)NC(=O)CNC(=O)[C@H](CC(=O)O)NC(=O)[C@H](CC(C)C)NC(=O)[C@@H]1CCCN1C(=O)[C@@H](NC(=O)[C@@H](NC(=O)[C@H](CCCCN)NC(=O)[C@@H](NC(=O)[C@H](CCCCN)NC(=O)[C@H](CS)NC(=O)[C@H](CO)NC(=O)[C@@H](N)Cc1c[nH]cn1)C(C)C)[C@@H](C)CC)C(C)C)C(=O)N[C@@H](C)C(=O)N[C@@H](CCC(N)=O)C(=O)N[C@@H](CCCNC(=N)N)C(=O)O` [Peptide 329] displayed an IC50 of 5 ± 1 nM.
